The supplement of paper PMC10307832

Key:
Assay in all cases: relative viability (nuclei count vs DMSO), 5 days (fraction); higher = more cells survive
Crizotinib + Pictilisib = compound: C[C@@H](Oc1cc(-c2cnn(C3CCNCC3)c2)cnc1N)c1c(Cl)ccc(F)c1Cl [Crizotinib] + CS(=O)(=O)N1CCN(Cc2cc3nc(-c4cccc5[nH]ncc45)nc(N4CCOCC4)c3s2)CC1 [Pictilisib] (partner 1 µM)
Procedure, shortened: (§1)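 Cells from lung cancer lines were seeded into 1536-well plates and, one day later, dosed by pin tool. Treatments were either a single drug or a fixed dose of an anchor drug with five library-drug doses (not always all listed) in √10 steps. After 5 days, nuclei were stained in a one-step fixation (final 0.05% Triton X-100, 1% formaldehyde, 1 ug/ml Hoechst) and counted on 4× images, and relative viability is the treated-to-vehicle nuclei ratio, as the median of duplicate plates.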

Carfilzomib + Pemetrexed = compound: CC(C)C[C@H](NC(=O)[C@H](CCc1ccccc1)NC(=O)CN1CCOCC1)C(=O)N[C@@H](Cc1ccccc1)C(=O)N[C@@H](CC(C)C)C(=O)[C@@]1(C)CO1 [Carfilzomib] + Nc1nc2[nH]cc(CCc3ccc(C(=O)N[C@@H](CCC(=O)O)C(=O)O)cc3)c2c(=O)[nH]1 [Pemetrexed] (partner 0.2 µM)
Procedure, shortened: as §1

Crizotinib + Decitabine = compound: C[C@@H](Oc1cc(-c2cnn(C3CCNCC3)c2)cnc1N)c1c(Cl)ccc(F)c1Cl [Crizotinib] + Nc1ncn([C@H]2C[C@H](O)[C@@H](CO)O2)c(=O)n1 [Decitabine] (partner 2 µM)
Procedure, shortened: as §1

Crizotinib + Olaparib = compound: C[C@@H](Oc1cc(-c2cnn(C3CCNCC3)c2)cnc1N)c1c(Cl)ccc(F)c1Cl [Crizotinib] + O=C(c1cc(Cc2n[nH]c(=O)c3ccccc23)ccc1F)N1CCN(C(=O)C2CC2)CC1 [Olaparib] (partner 8 µM)
Procedure, shortened: as §1

Olaparib + Linsitinib = compound: O=C(c1cc(Cc2n[nH]c(=O)c3ccccc23)ccc1F)N1CCN(C(=O)C2CC2)CC1 [Olaparib] + C[C@]1(O)C[C@@H](c2nc(-c3ccc4ccc(-c5ccccc5)nc4c3)c3c(N)nccn32)C1 [Linsitinib] (partner 1 µM)
Procedure, shortened: as §1

NCI-H1793
relative viability (Crizotinib + Pictilisib; first compound 0.01 µM): 0.355 | relative viability (Crizotinib + Pictilisib; first compound 0.03162 µM): 0.385 | relative viability (Crizotinib + Pictilisib; first compound 0.1 µM): 0.339 | relative viability (Crizotinib + Pictilisib; first compound 1 µM): 0.364 | relative viability (Carfilzomib + Pemetrexed; first compound 0.001 µM): 0.58 | relative viability (Carfilzomib + Pemetrexed; first compound 0.003162 µM): 1.13 | relative viability (Carfilzomib + Pemetrexed; first compound 0.01 µM): 0.861 | relative viability (Carfilzomib + Pemetrexed; first compound 0.03162 µM): 0.7 | relative viability (Carfilzomib + Pemetrexed; first compound 0.1 µM): 0.336 | relative viability (Crizotinib + Decitabine; first compound 0.03162 µM): 0.522 | relative viability (Crizotinib + Decitabine; first compound 0.1 µM): 0.53 | relative viability (Crizotinib + Decitabine; first compound 1 µM): 0.555 | relative viability (Crizotinib + Olaparib; first compound 0.1 µM): 0.835 | relative viability (Crizotinib + Olaparib; first compound 1 µM): 0.903 | relative viability (Olaparib + Linsitinib; first compound 0.08 µM): 0.862 | relative viability (Olaparib + Linsitinib; first compound 0.253 µM): 0.738 | relative viability (Olaparib + Linsitinib; first compound 2.53 µM): 0.942 | relative viability (Olaparib + Linsitinib; first compound 8 µM): 0.655
